Test results published in US11331387B2, “Self-assembled drug-loading system and preparation method therefor” (SHANGHAI SELECTION BIOSCIENCE LLC., priority 2016, dated 2022).

Columns and labels:
[1] = plasma clearance test on mice; type: in vivo
Procedure: To determine the appropriate drug ratio of ICG/SN38 nanoparticles for animal experiments, a series of ICG/SN38 nanoparticles: I2S1, I1S1, I1S2, I1S5 and I1S10 were prepared, and the average particle size thereof was 130 nm, 55 nm, 36 nm, 30 nm and 26 nm, respectively. The plasma clearance rate of the nanoparticles was measured based on the content of SN38 (10 mg/kg).
In addition, the plasma clearance rates of small molecule ICG, ICG/PTX solutions, and ICG/SN38 nanoparticles were compared.

[2] = tested on: BCap37 cells; test: MTT cytotoxicity test with and without irradiation; type: cell-based, human
Procedure: FIG. 9 is a graph showing a cytotoxicity test of ICG and the complex formulation thereof on BCap37 cells. (I1S2 is a nanoparticle formed by ICG and SN38 with a molar ratio of 1:2; and I1P1 is an aqueous solution drug of the complex formed by ICG and Paclitaxel with a molar ratio of 1:1. The drugs were applied for 24 hours and then washed off, followed by incubation for 24 hours after irradiation and non-irradiation treatment, respectively.)
200 μL of cell suspension at the density of 4000 cells/well was uniformly added to a 96-well plate. After 24 hours of incubation, ICG, ICG/SN38 (I1S2) nanoparticles, ICG/PTX (I1P1) complex solution and ICG/CCM (I1C2) complex solution were added at different concentration points. Two identical plates were incubated in dark for 3 hours, and then culture medium was removed and washed three times with PBS, followed by addition of fresh medium. The irradiation group was further dark-incubated after 30 minutes of irradiation under a fluorescent lamp, and the other cell culture plate was dark-incubated all long as a light-proof control group. After 48 hours of incubation, culture plates were centrifuged at 900 rpm, and culture medium was carefully removed. The plates were added the medium containing 0.75 mg/mL MIT dark-incubated for 3 hours, centrifuged at 3500 rpm. After carefully removing the culture solution, the plates were added 100 μL of DMSO to each well, and shaked for 5 minutes to completely dissolve the purple solids. The absorbance (OD) value was recorded on a microplate reader. The test of each drug concentration point was repeated 3 times.

[3] = tested on: BCap37 human breast cancer cell line tumor; test: tumor inhibition experiment in tumor-bearing nude mice, with and without irradiation; type: in vivo
Procedure: After the tumor size was grown to about 100 mm^3 (9 days after inoculation), the tumor-bearing nude mice were randomly divided into 7 groups, 5 in each group. One group was injected with PBS as blank control, and the other six administration groups were categorized as the ICG small molecule group without irradiation, ICG small molecule group plus irradiation, ICG/SN38 nanoparticle group, ICG/SN38 nanoparticle group plus irradiation, ICG/PTX aqueous solution group, and ICG/PTX aqueous solution group plus irradiation, respectively. The mice were injected via the tail vein at a dose of calculated ICG concentration at 10 mg/kg, and were administered once every other day for 2 times. The tumor size was recorded until the end of the experiment. The therapeutic effect was evaluated by comparing the treatment group with the control group. The tumor inhibition rate (IR) was calculated by the following formula: IR=100%×(mean tumor weight of the control group−mean tumor weight of the experimental group)/mean tumor weight of the control group.
FIG. 15 was the results of tumor inhibition after irradiation treatment. The ICG group was administered twice, and the ICG/SN38 nanoparticle group was administered once. Irradiation was carried out 4 hours after administration (808 nm laser, intensity 1 W/cm^2, irradiation for 2 minutes). […]

[4] = tested on: BCap37 human breast cancer cell line tumor; test: in vivo fluorescence imaging in tumor-bearing nude mice; conditions: 3 hours after administration, FIG. 13
Excerpt: Therefore, these two nanoparticle formulations were further selected for in vivo fluorescence imaging in tumor-bearing nude mice, in comparison with small molecule ICG. The tumor was located 2 cm below the right armpit of the mouse, derived from BCap37 human breast cancer cell line.

[5] = tested on: cells; test: cellular uptake by laser confocal microscopy; type: cell-based; conditions: 2 hours after drug applied
Procedure: In order to judge the rate of cellular uptake of drug from the nano formulation, as well as the therapeutic effect of the drug, the laser confocal microscopy microscope was used to observe the distribution of the drug in the cells 2 hours after drug applied. […] Therefore, the largest amount of ICG could enter into the cell to exert best therapeutic effect in the nano drug-loading system.

[6] = tested on: BCap37 cells; test: photothermal therapy effect at the cellular level; type: cell-based, human; conditions: 3 h incubation, 808 nm laser 5 min, 1 W/cm^2
Procedure: The endocytosis experiment was carried out with the indocyanine green complex formulations prepared in embodiments 1 and 2 of the present invention, and the free ICG was used as a control. The procedures were as follows:
The experiment was divided into ICG/SN38 group, ICG/PTX group and ICG group. The BCap37 cells on the stage of logarithmic phase were evenly seeded in a 12-well plate at 1×10^5 cells/well. After 24 hours of incubation, the incubation medium was discarded, and the above formulations in 1 mL culture medium were added to the plate, respectively. After 3 hours of incubation, the incubation medium was discarded, and 1 mL of PBS was added. The three wells incubated with different formulations were then irradiated with 808 nm laser for 5 min (1 W/cm^2), and were photographed in real time by an infrared thermal camera, and the graphs of the temperature changes of each group were recorded.

Question: With `CC1(C)C(/C=C/C=C/C=C/C=C2\N(CCCCS(=O)(=O)[O-])c3ccc4ccccc4c3C2(C)C)=[N+](CCCCS(=O)(=O)[O-])c2ccc3ccccc3c21.[Na+]` [ICG, indocyanine green] as the molecule, how does the ICG in plasma ([1]; after 1 hour) read?
Answer: nearly not detectable

Question: And the plasma clearance ([1]; mice, FIG. 11)?
Answer: extremely fast

Question: And the concentration at 3 min ([1]; mouse, plasma, other: injection (site not specified), three minutes after injecting)?
Answer: < 1000 ng/mL

Question: What about the IC50 ([2]; Homo sapiens, Bcap37, light or radiation study, with light irradiation) of the same molecule?
Answer: ~13.5 µM

Question: And the cell death ([2]; ICG 20 μM, after irradiation)?
Answer: death of all the cells

Question: And the “toxicity to the cells” value ([2]; in the absence of light)?
Answer: not toxic

Question: And the anti-tumor effect ([3]; irradiation 4 hours after administration, 808 nm, 1 W/cm^2, 2 minutes)?
Answer: residual tumors were still present and recurred rapidly after the end of treatment

Question: What about the anti-tumor effect ([3]; non-irradiation, ICG 10 mg/kg tail vein, every other day for 2 times) of the same molecule?
Answer: no anti-tumor effect at all

Question: What about the “in vivo distribution by fluorescence” value [4] of the same molecule?
Answer: the majority of ICG from the small molecule ICG group were cleared by the body

Question: And the “cellular uptake / intracellular distribution” value [5]?
Answer: difficult to enter the cell

Question: And the cell temperature change [6]?
Answer: no significant temperature changes
